Assay results taken from patent publication US20210015811A1, “METHODS OF TREATING A PULMONARY BACTERIAL INFECTION USING FLUOROQUINOLONES” (HORIZON ORPHAN, LLC, priority 2009, published 2021).
Values after ≈ are worked out from the molar mass of the structure shown.

Columns and labels:
[1] = test system: 114 CF P. aeruginosa isolates; experiment: Aerobic and anaerobic MIC susceptibility testing (broth microdilution, CLSI); format: cell-based, Pseudomonas aeruginosa; settings: for aerobic versus anaerobic MIC distribution (potency under anaerobic conditions): all 114 P. aeruginosa isolates, FIGS. 2A-D; for increase of geometric mean of the MIC by anaerobic incubation / increase of MIC50 under anaerobic conditions: 114 CF isolates; for increase of MIC50 under anaerobic conditions: CAMHB + 1% KNO3 for anaerobic
From the text: One hundred and fourteen CF P. aeruginosa isolates were obtained for susceptibility testing from the CF Referral Center for Susceptibility & Synergy Studies at Columbia University (New York, N.Y.) and also from two CF Therapeutics Development Network (TDN) laboratories (Seattle Children's Hospital, Seattle, Wash. and University of North Carolina at Chapel Hill, Chapel Hill, N.C.). About sixty percent were recent isolates (2004-2007) with the remaining forty percent isolated between 1980 and 2004.
The antibiotics used in these studies included tobramycin, levofloxacin, amikacin, and aztreonam which are in use or in development as aerosolized therapies for CF. For aerobic susceptibility tests, levofloxacin hydrochloride, tobramycin sulfate, and amikacin disulfate were purchased from LKT Laboratories (St. Paul, Minn.) and aztreonam base was purchased from MP Biomedicals (Solon, Ohio). All antibiotics used for anaerobic susceptibility tests were purchased from the United States Pharmacopeia (Rockville, Md.).
(§1) Antibiotic MIC endpoints were obtained using the broth microdilution method according to the CLSI reference method. See Clinical and Laboratory Standards Institute. Methods for Dilution Antimicrobial Susceptibility Tests for Bacteria That Grow Aerobically—Seventh Edition: Approved Standard M7-A7. CLSI, Wayne, Pa., USA, 2006. Antibiotics were serially diluted to the following concentrations for aerobic testing: levofloxacin and tobramycin from 0.03-32 mg/L and amikacin and aztreonam from 0.125-128 mg/L. Anaerobic susceptibility testing required the addition of 1% potassium nitrate (KNO3) to cation-adjusted Mueller-Hinton broth (CAMHB) to allow for P. aeruginosa anaerobic respiration. For anaerobic testing, frozen MIC plates were thawed and stored in the anaerobic chamber overnight to ensure elimination of all oxygen prior to inoculation with test strains. The dilution range for all antibiotics was 0.125-128 mg/L for the anaerobic susceptibility tests. Extended incubation of up to 48 hours under anaerobic conditions may be required and was needed for 54% of the isolates.

[2] = test system: P. aeruginosa strain PAM1481 (na1B gyrA (Asp87Tyr)); experiment: Levofloxacin MIC against isogenic strain PAM1481; format: cell-based; settings: Pseudomonas aeruginosa
From the text: (§2) P. aeruginosa strains PAM1020 (wild-type), PAM1032 (na1B), PAM1481 (na1B gyrA (Asp87Tyr)), and PAM1573 (na1B gyrA (Thr83Ile)) represent relevant efflux-mediated and target mutation resistance mechanisms and were used in the levofloxacin time-kill assays.
as §1, with “The dilution range for all antibiotics was 0.125-128 mg/L for the anaerobic susceptibility tests. Extended incubation of up to 48 hours under anaerobic conditions may be required and was needed for 54% of the isolates.” left out
(§3) Aerobic and hypoxic Mueller-Hinton broth (MHB) cultures were diluted to an initial inoculum of 1×10^7-1×10^8 CFU/ml. […] Agar plates were incubated up to 48 hours at 37° C. and bactericidal activity was assessed. […]

[3] = test system: P. aeruginosa strain PAM1032 (na1B); experiment: Levofloxacin MIC against isogenic strain PAM1032; format: cell-based; settings: Pseudomonas aeruginosa
From the text: as §2
as §1, with “The dilution range for all antibiotics was 0.125-128 mg/L for the anaerobic susceptibility tests. Extended incubation of up to 48 hours under anaerobic conditions may be required and was needed for 54% of the isolates.” left out
as §3

[4] = test system: P. aeruginosa strain PAM1573 (na1B gyrA (Thr83Ile)); experiment: Levofloxacin MIC against isogenic strain PAM1573; format: cell-based; settings: Pseudomonas aeruginosa
From the text: as §2
as §1, with “The dilution range for all antibiotics was 0.125-128 mg/L for the anaerobic susceptibility tests. Extended incubation of up to 48 hours under anaerobic conditions may be required and was needed for 54% of the isolates.” left out
as §3

[5] = test system: P. aeruginosa strain PAM1020 (wild-type); experiment: Levofloxacin MIC against isogenic strain PAM1020; format: cell-based; settings: Pseudomonas aeruginosa
From the text: as §2
as §1, with “The dilution range for all antibiotics was 0.125-128 mg/L for the anaerobic susceptibility tests. Extended incubation of up to 48 hours under anaerobic conditions may be required and was needed for 54% of the isolates.” left out
as §3

[6] = anaerobic vs aerobic incubation

NCC[C@H](O)C(=O)N[C@@H]1C[C@H](N)[C@@H](O[C@H]2O[C@H](CN)[C@@H](O)[C@H](O)[C@H]2O)[C@H](O)[C@H]1O[C@H]1O[C@H](CO)[C@@H](O)[C@H](N)[C@H]1O [amikacin]
aerobic versus anaerobic MIC distribution (potency under anaerobic conditions) [1]: reduced potency | increase of geometric mean of the MIC by anaerobic incubation [1, 6]: ~4 fold

C[C@H]1[C@H](NC(=O)/C(=N\OC(C)(C)C(=O)O)c2csc(N)n2)C(=O)N1S(=O)(=O)O [aztreonam]
aerobic versus anaerobic MIC distribution (potency under anaerobic conditions) [1]: reduced potency | increase of geometric mean of the MIC by anaerobic incubation [1, 6]: ~6 fold | increase of MIC50 under anaerobic conditions [1, 6]: 16 fold

C[C@H]1COc2c(N3CCN(C)CC3)c(F)cc3c(=O)c(C(=O)O)cn1c23 [levofloxacin]
MIC [2]: 4 µg/mL (≈ 11.1 µM) | MIC [3]: 1 µg/mL (≈ 2.77 µM) | MIC [4]: 8 µg/mL (≈ 22.1 µM) | MIC [5]: 0.125 µg/mL (≈ 0.346 µM) | increase of MIC50 under anaerobic conditions [1, 6]: 2 fold | isolates with MIC increase >4-fold under anaerobic conditions ([1]; anaerobic vs aerobic incubation, share of 114 CF isolates): 4%

NC[C@H]1O[C@H](O[C@H]2[C@H](O)[C@@H](O[C@H]3O[C@H](CO)[C@@H](O)[C@H](N)[C@H]3O)[C@H](N)C[C@@H]2N)[C@H](N)C[C@@H]1O [tobramycin]
aerobic versus anaerobic MIC distribution (potency under anaerobic conditions) [1]: reduced potency | increase of geometric mean of the MIC by anaerobic incubation [1, 6]: approximately 7 fold | increase of MIC50 under anaerobic conditions [1, 6]: 4 fold
